According to patent publication US11197856B2, “Bicyclic compounds and methods for their use in treating autism” (priority 2013, dated 2021):

Experiments:
[1] = test system: NMDA NR1 subunit; experiment: NMDA receptor-1 immunohistochemical staining of hippocampus; format: in vivo, male Wistar rats; conditions: CA1 and CA3; post-treatment
Protocol: Aged rats (male Wistar rats, 18-20 months old) were divided into four groups: two vehicle-treated (groups 1 and 3) and two G-2-AllylP treated (groups 2 and 4) (all groups n=6-8). Cyclic G-2-AllylP was synthesised by the Department of Medicinal Chemistry and dissolved in normal saline before the treatment. On day 1 a single dose of cyclic G-2-AllylP was given centrally (20 ng/animal, i.c.v.) to the animals in groups 2 and 4; saline was administered to groups 1 and 3. The memory tests using Novel Object Recognition Test started either on day 3 (groups 1 and 2) or 24 (groups 3 and 4) after the treatment. On the completion of the NORT, the rats were killed with an overdose of sodium pentobarbital and were perfused transcardially with normal saline followed by 10% formalin. Tissues collected at day 7 in groups 1 and 2, and at day 28 from groups 3 and 4. The brains were kept in the same fixative for a minimum of 2 days before being processed using a standard paraffin embedding procedure. Briefly, small blocks (10×10×3 mm) of tissue were fixed for up to 24 hrs. The blocks were then infiltrated and embedded with paraffin and cut in ribbons and mounted on slides. Slides were then stored until immunostaining was commenced. Synaptogenesis in brain tissue was examined using immunohistochemical staining. […]

[2] = test system: rats exposed to hypoxic-ischemic injury (HI); experiment: Hypoxic-ischemic injury (HI), modified Levine model, tissue damage score; format: in vivo, Wistar rats
Description: Adult rats (Wistar, 280-310 g, male) were used. The modified Levine model preparation and experimental procedures were used (Rice et al, 1981, Ann. Neurol. :9: 131-141; Guan et al J., 1993, Cereb. Blood Flow Metab.: 13(4): 609-16). These procedures in brief, consist of an HI injury induced by unilateral carotid artery ligation followed by inhalational asphyxia in the animals with an implanted lateral ventricular cannula. A guide cannula was stereotaxically placed on the top of the dura 1.3 mm to the right of the mid-line and 7.3 mm anterior to the interaural zero plane under halothane anaesthesia. The right carotid artery was double ligated two days after the cannulation. After 1 hour recovery from the anaesthesia, each of the rats were placed in an incubator where the humidity (90±5%) and temperature (31°±0.5° C.) were controlled for another hour, then exposed to hypoxia (6% oxygen) for 10 min. […]
Coronal sections 8 μm in thickness were cut from the striatum, cerebral cortex and hippocampus and were stained with thionin and acid fuchsin. The histological outcome was assessed at three levels: (1) the mid level of the striatum, (2) where the completed hippocampus first appeared and (3) the level where the ventral horn of the hippocampus just appears. The severity of tissue damage was scored in the striatum, cortex and the CA1-2, CA3, CA4 and dentate gyrus of the hippocampus. […]

[3] = test system: fmr1-knockout and wild-type animals; experiment: Contextual fear conditioning (freezing behavior); format: in vivo, mice
Description: Fear conditioning to either a cure or a context represents a form of associative learning that has been well used in many species. The dependent measure used in contextual (delay) fear conditioning is a freezing response that takes place following pairing of an unconditioned stimulus (foot shock), with a conditioned stimulus (CS), a particular context and/or such a cue. If in a conditioning context one administers a foot shock that is paired with atone, there will be learning not only to the tone, but also to the context.
Contextual fear conditioning is a bask conditioning procedure. It involves taking an animal and placing it in a novel environment, providing an aversive stimulus, and then removing it. […] Freezing is a response to fear, which has been defined as “absence of movement except for respiration.” This freezing behavior may last from seconds to minutes depending on the strength of the aversive stimulus, the number of presentations, and the degree of learning achieved by the subject.
The device used in this study is depicted in FIG. 27. An unconditioned stimulus (mild shock to the feet) was applied, and the conditioned stimulus was a tone applied along with the shock to the feet. Under these conditions, the animals associate the unconditioned stimulus with both the conditioned stimulus and the context of the stimuli. Animals were tested for […].

[4] = test system: fmr1-knockout animals; experiment: Sociability: bouts of sniffing a novel mouse; format: in vivo, mice; conditions: p<0.001
Protocol: Social recognition and social memory in mice were evaluated by the amount of time spent sniffing a novel mouse upon repeated exposures, to induce familiarity, and reinstatement of high levels of sniffing when a novel stimulus animal is introduced. We measured the number of bouts of sniffing in each of the groups of animals.

C=CC[C@]12CCCN1C(=O)CNC2=O [cG-2-AllylP, (8aS)-Allyl-hexahydropyrrolo[1,2-a]pyrazine-1,4-dione]
changes in the NMDA receptors [1]: not so pronounced
tissue damage score ([2]; 2 ng icv 2 hours after HI, each brain region, vs vehicle p<0.001): significantly reduced the tissue damage in each brain region examined
neural damage after hypoxia/ischemia ([2]; 2, 4, 20, 100 ng icv, all other sites and all other doses): lessened the neural damage effects of hypoxia/ischemia
time spent in freezing behavior [3]: substantial and statistically significant increase in the time spent in freezing behavior
bouts of sniffing [4]: about 21
